Test results as given in US20150309031A2, “COMPOSITIONS AND METHODS FOR PROGNOSIS AND TREATMENT OF CANCER” (NOVAZOI THERANOSTICS, priority 2013, published 2015).

Assays:
HDFs and MCF10A cells = assay: Spindle multipolarity (MP) in non-malignant cell lines; type: cell-based
PC3 cells = assay: subG1 (hypodiploid) fraction by flow cytometry, PC3 cells; type: cell-based
Procedure: Trypsinized cells were resuspended in PBS at 10^6 cells/ml. Cells were then fixed by addition of ice-cold 70% ethanol. Ethanol-fixed cells were kept overnight at 4° C. before staining. Cells were pelleted and washed twice with PBS. Cell pellets were incubated for an hour at room temperature with mouse anti-MPM-2 antibody (Millipore, Mass., USA), followed by 1 h incubation with Alexa-488 anti-mouse secondary antibody (Life Technologies, NY, USA). Finally cells were washed, pelleted and resuspended in propidium iodide-containing isotonic buffer (0.1 mg/mL) and 0.5% Triton X-100. Cell cycle distribution was determined by flow cytometry using an LSR Fortessa Flow cytometer (BD Biosciences, CA, USA) and analyzed using Flowjo software (Tree Star, OR, USA). […] The duration, highest degree, and rapidity of onset of MA varied between drugs, drug concentrations, and cell lines (FIGS. 2A, 2B). In general, the maximum MA achieved was less pronounced in Nos- and PJ-treated cells (FIGS. 2A, 2B). Drug-induced onset of MA was corroborated by substantial increases in cyclin B1 levels in all cell lines (FIG. 2C). […] Instances where the subG1 fraction was elevated without cleaved caspase-3 may either represent caspase-independent cell death or the presence of hypodiploid cells whose fate is unclear.

[1] = test system: human ovarian cancer xenografts; conditions: nude mice carrying human ovarian cancer xenografts; cited from earlier work
231 cells = assay: Centrosome amplification (CA) by microscopy, 231 cells; type: cell-based; conditions: for maximum extent of CA in mitotic cells: over 24 h
Procedure: (§1) Consequently, CA was assessed in cultures treated with different concentrations of declustering drugs for 6, 12, 18, or 24 h and untreated controls via microscopy. […] The peak percent CA detected over 24 h is shown in FIG. 6 (only statistically significant (P<0.05) increases over control values are represented in the Figures). Representative confocal micrographs of CA in interphase and mitotic cells, both control and drug treated, are depicted in FIG. 7. […] To better understand the “potency” of drug-induced CA with time, the average fold change in CA over controls over 24 h was assessed (FIG. 5A), whereby the extent of CA across time points (i.e., 6, 12, 18, and 24 h) was averaged and then divided by the extent of CA in control (i.e., 0 h). […] For Nos and BN, there was no major difference in CA levels in interphase versus mitotic cells.

HeLa cells = assay: Centrosome amplification (CA) by microscopy, HeLa cells; type: cell-based
Procedure: as §1

[2] = test system: human dermal fibroblasts (HDFs); assay: Centrosome amplification (CA) by microscopy, HDFs; type: cell-based
Procedure: Consequently, CA was assessed in cultures treated with different concentrations of declustering drugs for 6, 12, 18, or 24 h and untreated controls via microscopy. Centrosomes were identified by γ-tubulin and centrin-2 colocalization at discrete foci. […] The peak percent CA detected over 24 h is shown in FIG. 6 (only statistically significant (P<0.05) increases over control values are represented in the Figures). Representative confocal micrographs of CA in interphase and mitotic cells, both control and drug treated, are depicted in FIG. 7. No significant correlations between the degree of CA (FIG. 5A) and the expression levels of PLK4, Cyclin E, and Aurora A were found (FIG. 4).
To determine whether the CA-inducing activity of declustering drugs is restricted to cancer cells, two non-malignant cell lines, mammary fibrocystic (MCF10A) cells and adult human dermal fibroblasts were treated with these drugs. Neither one of RBN, GF or PJ induced CA or cell death (Table 8) in these cell lines. […] In comparison, 10 and 25 μM RBN increased peak CA over controls in interphase cells (p<0.001 and p=0.001, respectively), with the lower concentration dramatically augmenting peak CA to 56% of cells versus 15% for the higher dose (FIG. 9B). Only 10 but not 25 μM RBN increased the extent of CA in mitotic cells, and this upregulation was only slight (10%, p=0.041).

[3] = test system: mammary fibrocystic (MCF10A) cells; assay: subG1 (hypodiploid) fraction by flow cytometry, MCF10A cells; type: cell-based; conditions: for Peak subG1 percent over 48 h: MCF10A

For reduced bromonoscapine [RBN], the “induction of MP over control levels” value (HDFs and MCF10A cells) was “significantly induce MP over control levels”, the “Peak subG1 percent over 48 h” value (PC3 cells; 10 μM) was 80.7% and the “maximum subG1 fraction relative to control” value (PC3 cells; 10 μM) was 8 × control. The “Peak subG1 percent over 48 h” value (PC3 cells; 25 μM) was 73.0%, the “toxicity in normal tissues” value [1] was “toxicity was not detected in normal tissues” and the tumor progression [1] was “inhibited tumor progression”. The “change of peak CA extent over control” value (231 cells; 25 μM) was “only slightly more than doubled the peak CA extent”, the “final extent of CA” value (231 cells; 25 μM) was “around 90%” and the “maximum extent of CA in interphase cells” value (231 cells; 10 μM) was 31%. The “maximum extent of CA in interphase cells” value (231 cells; 25 μM) was 87%, the “fold increase of CA over controls, mitotic cells” value (231 cells; 10 μM) was ~2.5 fold and the “maximum extent of CA in mitotic cells” value (231 cells; 10 μM) was 56%. The “fold increase of CA over controls, mitotic cells” value (231 cells; 25 μM) was ~2.0 fold, the “maximum extent of CA in mitotic cells” value (231 cells; 25 μM) was 96% and the “peak extent of CA in interphase cells” value (HeLa cells; interphase, 10 μM) was 30.7%. The “peak / final extent of CA in interphase cells” value (HeLa cells; interphase, 25 μM) was 48.1%, the “cells having CA, mitotic cells” value (HeLa cells; 10 μM) was 78% and the “fold increase of CA, mitotic cells” value (HeLa cells; 10 μM) was “approximately 40 fold”. The “cells having CA, mitotic cells” value (HeLa cells; 25 μM) was 42%, the “fold increase of CA, mitotic cells” value (HeLa cells; 25 μM) was ~20 fold and the “peak CA in interphase cells” value ([2]; 10 μM) was 56%. For the same substance, the “peak CA in interphase cells” value ([2]; 25 μM) was 15%, the “extent of CA in mitotic cells” value ([2]; mitotic, 10 μM) was 10% and the “change of peak subG1 percent compared to controls (in words)” value ([3]; MCF10A cells) was “did increase peak SubG1 in MCF10A cells compared to controls”. The “Peak subG1 percent over 48 h” value ([3]; 10 μM) was 36.4% and the “Peak subG1 percent over 48 h” value ([3]; 25 μM) was 44.0%.
